Assay results taken from EP2814319B1, “ANTIMICROBIAL COMPOSITION CONTAINING PHOTOCHEMICALLY STABLE SILVER COMPLEXES” (NM Tech Nanomaterials and Microdevices Technology Ltd., priority 2012, dated 2013).

Legend:
Solubility in water = assay type: physicochemical; conditions: without surfactant
Procedure: The complex of formula Ag-L can be prepared by adding stoichiometric amounts of 4-mercaptophenylboronic acid to an aqueous solution of a silver salt, such as silver nitrate. […] This complex can be solubilized in aqueous solution by addition of a cationic surfactant.
(§1) The neutral complex Ag-L with L = 4-mercaptophenilboronic acid was prepared by adding stoichiometric amounts of 4-mercaptophenylboronic acid to an aqueous solution of a silver salt, such as silver nitrate. […] The aqueous solution of the complex was stabilized by addition of Benzalkonium chloride up to reach a concentration of about 2 x 10^-2 M, which corresponds to the double of its critical micelle concentration.

[1] = Photochemical stability of aqueous solutions under ambient light exposure; assay type: physicochemical
Procedure: The observation that, after a 12 month period, in the presence of a cationic surfactant no precipitation and no formation of metallic Silver occur, confirms the relevant role of the cationic surfactants in determining the stabilization in solution of the neutral complex and the role of the ligand L in stabilizing photochemically the Ag^+ ion.
as §1

[2] = tested on: Staphylococcus aureus (ATCC- 6538), Pseudomonas aeruginosa (ATCC - 15442); test: Quantitative suspension test for bactericidal activity (UNI EN 1272:2009); assay type: cell-based
Procedure: The bactericidal activity was tested on freshly prepared aqueous solutions of the neutral Ag-L complex where the ligand L coordinated to the silver ion is 4-mercaptophenilboronic acid .
Additional tests were carried out on aqueous solutions containing the neutral Silver Ag-L complex and different cationic surfactants and, for purpose of comparison, on aqueous solutions containing only the cationic surfactants at the same concentration levels. It is in fact known that the cationic surfactants used for the purposes of the invention are endowed with antimicrobic activity on their own.
The bactericidal activity tests were carried out according to UNI EN 1272:2009 and UNI EN 13697:2001 standards, which make reference to chemical disinfectants and antiseptics, by using the following test organism: Staphylococcus aureus (ATCC- 6538), as representative of Gram-positive bacteria and Pseudomonas aeruginosa (ATCC - 15442), as representative of Gram-negative bacteria.
On such solutions it was in fact observed a maximum reduction of the bacterial count of ca 6-7 log.

[3] = tested on: Staphylococcus epidermidis; conditions: cited from earlier work
[4] = treating burns; decreased from 60%; cited from earlier work

For OB(O)c1ccc([S][Ag])cc1 [AgL], the solubility in water (Solubility in water) was “only partly soluble in water”, the “change in color or composition” value ([1]; aqueous solution stabilized with Benzalkonium chloride about 2 x 10^-2 M, 12 months ambient light exposure) was “did not show any change in color or composition” and the log reduction at 330 µM ([2]; Staphylococcus aureus, 0.5 h, concentration of the order of 3.3 x 10^-4 M in water, 30 min of contact, read-out: log reduction of bacterial count) was 2 to 3.
For [H]/N=C(\N/C(=N/[H])NCCCCCCNC(=N)NC(=N)Nc1ccc(Cl)cc1)Nc1ccc(Cl)cc1 [chlorhexidine], the development of resistance [3] is listed as “no evidence of resistance”.
With O=[N+]([O-])[O-].[Ag+] [Silver Nitrate, silver nitrate] the “formation of Ag° precipitate” value ([1]; aqueous solution, comparable conditions (ambient light exposure)) was “formation of a black Ag° precipitate after few minutes”, the “log reduction of bacterial count” value ([2]; concentration of the order of 3.3 x 10^-4 M in water, 30 min of contact) was 2-3 log and the “antimicrobial activity after exposure to ambient light” value ([2]; solution of concentration comparable to 3.3 x 10^-4 M) was “lose the antimicrobial activity after exposure to ambient light”. For the same compound, the “number of deaths that were a result of sepsis” value [4] was 28%.
